Measured values as given in patent US20240246960A1 (adMare Therapeutics Society, priority 2021, published 2024).

Key:
[1] = Pharmacokinetic study in mice (IV, PO); format: in vivo, mice (C57BL/6); details: Mouse Plasma; for AUC(0-t) / half-life / AUC(0-inf) / Cmax / Cmax at 5 min: female, C57BL/6; for AUC(0-inf): read-out: AUCINF—obs; for Cmax: read-out: Cmax (5 min)
Protocol: Pharmacokinetic analysis of compounds was conducted following bolus intravenous (IV) or bolus oral (PO) gavage in mice. Female mice (C57BL/6) in the 17-26 g range were weighed, and then administered an individually prescribed dose volume based on body weight of formulated compound via the intravenous (IV; tail vein) or oral gavage (PO) route (IV 5 mL/kg; PO 10 mL/kg). At selected timepoints post administration, blood was collected into vials with anticoagulant, processed for plasma by centrifugation, and then kept frozen ([…]) until analysis.
(§1) The in-vivo study plasma samples were analyzed using Ultra Performance Liquid Chromatography (UPLC) with tandem mass spectrometry (MS/MS) detection in multiple reaction monitoring (MRM) mode. A generic bioanalytical method involving plasma sample extraction and cleanup by protein precipitation with acetonitrile was used followed by UPLC-MS/MS analysis.
(§2) A brief example of a generic bioanalytical UPLC-MS/MS method used for analysis of compounds in the in-vivo study plasma samples is as follows. Plasma samples were spiked with internal standard prior to extraction and cleanup by protein precipitation with ice cold acetonitrile containing 0.1% (v/v) ammonium hydroxide at a ratio of 3:1 (solvent:plasma) and centrifuged at 18213 rcf for 15 minutes at 4° C. to pellet precipitates. Aliquots of supernatants were transferred to a 96-well plate and evaporated to dryness at 40° C. under a stream of nitrogen gas. Samples were reconstituted in 50:50 acetonitrile/10 mM ammonium acetate buffer pH 8, mixed thoroughly and analyzed using Ultra Performance Liquid Chromatography (UPLC) with tandem mass spectrometry (MS/MS) detection in multiple reaction monitoring (MRM) mode. Matrix-matched calibration standards and quality control (QC) samples were prepared in naïve C57Bl/6 mouse plasma. The UPLC column used was Waters Acquity UPLC BEH C18 1.7 um, 2.1 mm×50 mm (with guard column). The UPLC mobile phase consisted of: Mobile phase A: 10 mM ammonium acetate in Water pH 8, and Mobile phase B: Acetonitrile. Separation was accomplished with a linear gradient of 5% mobile phase B to 95% mobile phase B in 2 min, and a flow rate of 0.35 mL/min. The MS/MS data acquisition was accomplished using 3 MRM Transitions in ESI+ mode. Parent ion mass 508.37 m/z-to-Daughter ions (m/z) 117.05, 232.13 and 270.22. The quantitation of concentrations in test samples was achieved by matrix-matched calibration with normalization using an internal standard. Data acquisition and analysis were performed using Waters MassLynx software with TargetLynx application manager.
(§3) Estimation of PK parameters was performed using independent noncompartmental model method by PHOENIX WinNonlin software.

[2] = Pharmacokinetic study in dogs (IV, PO); format: in vivo, Beagle dogs; details: Table C, Dog Plasma; for AUC(0-t) / Cmax at 5 min / half-life / AUC(0-inf): male, Beagle; for AUC(0-inf): read-out: AUCINF—obs
Protocol: Pharmacokinetic studies were conducted to estimate plasma concentrations obtained after oral gavage (PO) and intravenous (IV) single administration of compounds administered to separate groups of male Beagle dogs. Three (3) dogs were administered a compound via the intravenous (IV) route at 3 mg/kg and 2.5 mL/kg, and plasma was collected at 12 timepoints over a 24-hour period. Following a 7 days washout period, the same dogs were administered the same compound via PO at 10 mg/kg and 5 mL/kg, and plasma was collected at 12 timepoints over a 48-hour period.
as §1, §2, §3

[3] = Pharmacokinetic study in rats (IV, PO); format: in vivo, Sprague-Dawley rats; details: Table B, Rat Plasma; for AUC(0-t) / half-life / AUC(0-inf) / Cmax: male, Sprague-Dawley; for AUC(0-inf): read-out: AUCINF—obs; for Cmax: read-out: Cmax (5 min)
Protocol: Pharmacokinetic studies were conducted to estimate plasma concentrations obtained after oral gavage (PO) and intravenous (IV) single administration of compounds administered to male Sprague-Dawley rats. Six (6) rats were administered for each compound, route and dose, and plasma was collected at 12 timepoints over a 24 hr period for IV, and 12 timepoints over a 48 hr period for PO. Note that plasma was collected from only 3 animals per timepoint (n=3 for timepoints up to 10 hours, and n=3 for timepoints from 16 h to end of study). Dosing volumes were 5 mL/kg for IV and 10 mL/kg for PO gavage. IV compounds for administration were in solutions, whereas PO compounds were in solution or suspension.
as §1, §2, §3

For O=C(N[C@H]1CC[C@@H](Oc2nc(N3CCOCC3)cc3ncccc23)CC1)c1ncccn1 [Compound 123, N-((1s,4s)-4-((7-Morpholino-1,6-naphthyridin-5-yl)oxy)cyclohexyl)pyrimidine-2-carboxamide], which “AUC—%Extrap—obs” value ([1]; Table A, IV, 3 mg/kg) is on record?
The value was 0.73%.

What about the Cl_obs ([1]; Table A, IV, 3 mg/kg) of the same compound?
The Cl_obs was 21.2632 mL/min/kg.

And the Vz_obs ([1]; Table A, IV, 3 mg/kg)?
The Vz_obs was 3.93714 L/kg.

And the “AUC—%Extrap—obs” value ([1]; Table A, PO, 10 mg/kg)?
Its value is 6.92%.

And the Cl_obs ([1]; Table A, PO, 10 mg/kg)?
Its Cl_obs is 32.236 mL/min/kg.

What about the F ([1]; Table A, PO, 10 mg/kg) of the same compound?
The F was 62%.

What about the Vz_obs ([1]; Table A, PO, 10 mg/kg) of the same compound?
The Vz_obs was 9.80258 L/kg.

And the AUC(0-t) ([1]; Table A, IV, 3 mg/kg)?
Its AUC(0-t) is 2330 ng·h/mL.

And the half-life ([1]; Table A, IV, 3 mg/kg)?
The half-life was 2.14 h.

And the AUC(0-inf) ([1]; Table A, IV, 3 mg/kg)?
Its AUC(0-inf) is 2350 ng·h/mL.

And the Cmax ([1]; Table A, IV, 3 mg/kg)?
The Cmax was 3660 ng/mL.

And the AUC(0-t) ([1]; Table A, PO, 10 mg/kg)?
The AUC(0-t) was 4810 ng·h/mL.

And the half-life ([1]; Table A, PO, 10 mg/kg)?
The half-life was 3.51 h.

And the AUC(0-inf) ([1]; Table A, PO, 10 mg/kg)?
The AUC(0-inf) was 5170 ng·h/mL.

And the Cmax ([1]; Table A, PO, 10 mg/kg)?
Its Cmax is 2380 ng/mL.

And the “AUC—%Extrap—obs” value ([2]; IV, 3 mg/kg)?
The value was 2.17%.

And the Cl_obs ([2]; IV, 3 mg/kg)?
The Cl_obs was 10.237 mL/min/kg.

What about the Vz_obs ([2]; IV, 3 mg/kg) of the same compound?
Its Vz_obs is 4.4105 L/kg.

What about the “AUC—%Extrap—obs” value ([2]; PO, 10 mg/kg) of the same compound?
The value was 0.29%.

And the Cl_obs ([2]; PO, 10 mg/kg)?
The Cl_obs was 10.148 mL/min/kg.

What about the F ([2]; PO, 10 mg/kg) of the same compound?
Its F is 108%.

And the Vz_obs ([2]; PO, 10 mg/kg)?
The Vz_obs was 5.13768 L/kg.

What about the AUC(0-t) ([2]; IV, 3 mg/kg) of the same compound?
The AUC(0-t) was 4940 ng·h/mL.

And the Cmax at 5 min ([2]; IV, 3 mg/kg)?
Its Cmax at 5 min is 2470 ng/mL.

And the half-life ([2]; IV, 3 mg/kg)?
The half-life was 5.2 h.

And the AUC(0-inf) ([2]; IV, 3 mg/kg)?
The AUC(0-inf) was 5070 ng·h/mL.

And the AUC(0-t) ([2]; PO, 10 mg/kg)?
The AUC(0-t) was 17800 ng·h/mL.

What about the Cmax at 5 min ([2]; PO, 10 mg/kg) of the same compound?
The Cmax at 5 min was 2970 ng/mL.

What about the half-life ([2]; PO, 10 mg/kg) of the same compound?
Its half-life is 6.03 h.

What about the AUC(0-inf) ([2]; PO, 10 mg/kg) of the same compound?
The AUC(0-inf) was 17800 ng·h/mL.

And the “AUC—%Extrap—obs” value ([3]; IV, 3 mg/kg)?
The value was 0.48%.

What about the Cl_obs ([3]; IV, 3 mg/kg) of the same compound?
The Cl_obs was 50.8342 mL/min/kg.

And the Vz_obs ([3]; IV, 3 mg/kg)?
Its Vz_obs is 4.33451 L/kg.

And the “AUC—%Extrap—obs” value ([3]; PO, 3 mg/kg)?
The value was 16.96%.

What about the Cl_obs ([3]; PO, 3 mg/kg) of the same compound?
Its Cl_obs is 252.6873 mL/min/kg.

What about the F ([3]; PO, 3 mg/kg) of the same compound?
Its F is 17%.

What about the Vz_obs ([3]; PO, 3 mg/kg) of the same compound?
Its Vz_obs is 85.17336 L/kg.

And the “AUC—%Extrap—obs” value ([3]; PO, 10 mg/kg)?
Its value is 19.45%.

And the Cl_obs ([3]; PO, 10 mg/kg)?
The Cl_obs was 92.7505 mL/min/kg.

What about the F ([3]; PO, 10 mg/kg) of the same compound?
Its F is 44%.

And the Vz_obs ([3]; PO, 10 mg/kg)?
The Vz_obs was 34.17323 L/kg.

What about the “AUC—%Extrap—obs” value ([3]; PO, 30 mg/kg) of the same compound?
Its value is 28.47%.

And the Cl_obs ([3]; PO, 30 mg/kg)?
The Cl_obs was 43.6063 mL/min/kg.

What about the F ([3]; PO, 30 mg/kg) of the same compound?
Its F is 84%.

And the Vz_obs ([3]; PO, 30 mg/kg)?
The Vz_obs was 19.76577 L/kg.

And the AUC(0-t) ([3]; IV, 3 mg/kg)?
The AUC(0-t) was 979 ng·h/mL.

What about the half-life ([3]; IV, 3 mg/kg) of the same compound?
Its half-life is 0.99 h.

What about the AUC(0-inf) ([3]; IV, 3 mg/kg) of the same compound?
The AUC(0-inf) was 984 ng·h/mL.

And the Cmax ([3]; IV, 3 mg/kg)?
The Cmax was 1490 ng/mL.

And the AUC(0-t) ([3]; PO, 3 mg/kg)?
Its AUC(0-t) is 164 ng·h/mL.

And the half-life ([3]; PO, 3 mg/kg)?
Its half-life is 3.89 h.

And the AUC(0-inf) ([3]; PO, 3 mg/kg)?
The AUC(0-inf) was 198 ng·h/mL.

What about the Cmax ([3]; PO, 3 mg/kg) of the same compound?
Its Cmax is 32.2 ng/mL.

And the AUC(0-t) ([3]; PO, 10 mg/kg)?
Its AUC(0-t) is 1450 ng·h/mL.

And the half-life ([3]; PO, 10 mg/kg)?
Its half-life is 4.26 h.

What about the AUC(0-inf) ([3]; PO, 10 mg/kg) of the same compound?
The AUC(0-inf) was 1800 ng·h/mL.

What about the Cmax ([3]; PO, 10 mg/kg) of the same compound?
The Cmax was 396 ng/mL.

And the AUC(0-t) ([3]; PO, 30 mg/kg)?
Its AUC(0-t) is 8200 ng·h/mL.

What about the half-life ([3]; PO, 30 mg/kg) of the same compound?
The half-life was 5.24 h.

What about the AUC(0-inf) ([3]; PO, 30 mg/kg) of the same compound?
The AUC(0-inf) was 11500 ng·h/mL.

And the Cmax ([3]; PO, 30 mg/kg)?
Its Cmax is 1570 ng/mL.

With O=C(N[C@H]1CC[C@@H](Oc2nc(N3CCOCC3)cc3ncccc23)CC1)c1cc[nH]c1 [Compound 140, N-((1s,4s)-4-((7-morpholino-1,6-naphthyridin-5-yl)oxy)cyclohexyl)-1H-pyrrole-3-carboxamide] as the compound, how does the “AUC—%Extrap—obs” value ([1]; Table D, IV, 3 mg/kg) read?
Its value is 0.91%.

What about the Cl_obs ([1]; Table D, IV, 3 mg/kg) of the same compound?
Its Cl_obs is 34.092 mL/min/kg.

And the Vz_obs ([1]; Table D, IV, 3 mg/kg)?
The Vz_obs was 3.32052 L/kg.

And the “AUC—%Extrap—obs” value ([1]; Table D, PO, 10 mg/kg)?
The value was 0.39%.

What about the Cl_obs ([1]; Table D, PO, 10 mg/kg) of the same compound?
Its Cl_obs is 77.5327 mL/min/kg.

And the F ([1]; Table D, PO, 10 mg/kg)?
Its F is 44%.

And the Vz_obs ([1]; Table D, PO, 10 mg/kg)?
Its Vz_obs is 18.51427 L/kg.

What about the AUC(0-t) ([1]; Table D, IV, 3 mg/kg) of the same compound?
Its AUC(0-t) is 1450 ng·h/mL.

And the Cmax at 5 min ([1]; Table D, IV, 3 mg/kg)?
The Cmax at 5 min was 2020 ng/mL.

What about the half-life ([1]; Table D, IV, 3 mg/kg) of the same compound?
The half-life was 1.13 h.

What about the AUC(0-inf) ([1]; Table D, IV, 3 mg/kg) of the same compound?
The AUC(0-inf) was 1470 ng·h/mL.

And the AUC(0-t) ([1]; Table D, PO, 10 mg/kg)?
The AUC(0-t) was 2140 ng·h/mL.

And the Cmax at 5 min ([1]; Table D, PO, 10 mg/kg)?
The Cmax at 5 min was 1240 ng/mL.

What about the half-life ([1]; Table D, PO, 10 mg/kg) of the same compound?
The half-life was 2.76 h.

What about the AUC(0-inf) ([1]; Table D, PO, 10 mg/kg) of the same compound?
Its AUC(0-inf) is 2150 ng·h/mL.
